Data reported in ChEMBL document CHEMBL1131735, “Structure-activity relationships of substituted 5H-thiazolo[3,2-a]pyrimidines as group 2 metabotropic glutamate receptor antagonists” (Bioorg Med Chem Lett, 1999).

Target: Metabotropic glutamate receptor 2 (Rattus norvegicus, UniProt P31421)
Test: Inhibition of 1S,3R-ACPD (10 uM) -stimulated GTP gamma 35S binding on rat Metabotropic glutamate receptor 2 transfected in CHO cells
Format: cell-based

Sequence of Metabotropic glutamate receptor 2 (P31421 whole entry): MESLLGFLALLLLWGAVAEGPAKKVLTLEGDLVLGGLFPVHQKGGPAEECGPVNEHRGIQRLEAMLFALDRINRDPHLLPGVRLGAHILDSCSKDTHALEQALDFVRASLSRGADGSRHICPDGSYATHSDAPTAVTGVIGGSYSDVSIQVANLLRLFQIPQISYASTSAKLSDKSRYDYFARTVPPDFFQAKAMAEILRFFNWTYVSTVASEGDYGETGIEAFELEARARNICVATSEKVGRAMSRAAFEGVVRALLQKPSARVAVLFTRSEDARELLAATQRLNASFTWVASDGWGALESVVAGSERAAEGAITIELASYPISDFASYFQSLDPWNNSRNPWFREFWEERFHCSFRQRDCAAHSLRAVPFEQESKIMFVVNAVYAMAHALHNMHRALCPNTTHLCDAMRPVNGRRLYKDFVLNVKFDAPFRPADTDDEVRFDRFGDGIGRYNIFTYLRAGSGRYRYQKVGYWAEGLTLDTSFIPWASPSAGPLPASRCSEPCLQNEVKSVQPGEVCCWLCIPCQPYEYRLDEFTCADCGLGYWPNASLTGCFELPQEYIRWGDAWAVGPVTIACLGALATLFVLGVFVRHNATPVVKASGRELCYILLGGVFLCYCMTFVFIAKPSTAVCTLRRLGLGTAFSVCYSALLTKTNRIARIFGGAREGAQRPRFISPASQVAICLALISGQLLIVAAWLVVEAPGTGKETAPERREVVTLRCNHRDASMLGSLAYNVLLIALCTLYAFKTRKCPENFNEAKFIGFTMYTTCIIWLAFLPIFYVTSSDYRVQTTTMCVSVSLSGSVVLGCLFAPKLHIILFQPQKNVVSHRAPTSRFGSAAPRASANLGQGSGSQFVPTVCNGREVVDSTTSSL

| Ki | Structure (SMILES) |
| --- | --- |
| 8 µM | CC1=C(C(=O)OCCN(C)C)C(c2ccccc2C)N2C=C(c3c(Cl)cccc3Cl)SC2=N1 (stereo unspecified) |
| 2 µM | COc1cccc(C2C(C(=O)OCCN(C)C)=C(C)N=C3SC(c4c(Cl)cccc4Cl)=CN32)c1 (stereo unspecified) |
| 4 µM | COc1ccccc1C1C(C(=O)OCCN(C)C)=C(C(C)C)N=C2SC(c3c(Cl)cccc3Cl)=CN21 (stereo unspecified) |
| 2.4 µM | COc1ccccc1C1C(C(=O)OCCCN(C)C)=C(C)N=C2SC(c3c(Cl)cccc3Cl)=CN21 (stereo unspecified) |
| 1 µM | COc1ccccc1C1C(C(=O)OCCN(C)C)=C(C)N=C2SC(c3ccc(Cl)cc3Cl)=CN21 (stereo unspecified) |
| 7 µM | COc1ccc(C2C(C(=O)OCCN(C)C)=C(C)N=C3SC(c4c(Cl)cccc4Cl)=CN32)cc1 (stereo unspecified) |
| 4 µM | COc1ccccc1C1C(C(=O)OCCN(C)C)=C(C)N=C2SC(c3ccc(Cl)cc3)=CN21 (stereo unspecified) |
| > 10 µM | COc1ccccc1C1C(C(=O)NCCN(C)C)=C(C)N=C2SC(c3c(Cl)cccc3Cl)=CN21 (stereo unspecified) |
| 1.5 µM | COc1ccccc1C1C(C(=O)OCCN(C)C)=C(C)N=C2SC(c3c(Cl)cccc3Cl)=CN21 (stereo unspecified) |
| 1 µM | CCC1=C(C(=O)OCCN(C)C)C(c2ccccc2OC)N2C=C(c3c(Cl)cccc3Cl)SC2=N1 (stereo unspecified) |
| 2 µM | CC1=C(C(=O)OCCN(C)C)C(c2ccccc2Cl)N2C=C(c3c(Cl)cccc3Cl)SC2=N1 (stereo unspecified) |
| > 10 µM | COc1ccccc1C1C(C(=O)OCCN(C)C)=C(C(=O)c2ccccc2)N=C2SC(c3c(Cl)cccc3Cl)=CN21 (stereo unspecified) |
| 2 µM | CC1=C(C(=O)OCCN(C)C)C(c2ccccc2OC(C)C)N2C=C(c3c(Cl)cccc3Cl)SC2=N1 (stereo unspecified) |
| 3.2 µM | CC1=C(C(=O)OCCN(C)C)C(c2ccccc2F)N2C=C(c3c(Cl)cccc3Cl)SC2=N1 (stereo unspecified) |
| 3 µM | CCOc1ccccc1C1C(C(=O)OCCN(C)C)=C(C)N=C2SC(c3c(Cl)cccc3Cl)=CN21 (stereo unspecified) |
| 4 µM | CCOC(=O)C1=C(C)N=C2SC(c3c(Cl)cccc3Cl)=CN2C1c1ccccc1OC (stereo unspecified) |
